From patent US20250145633A1, “SUBSTITUTED FURANOPYRIMIDINE COMPOUNDS AS PDE1 INHIBITORS” (Dart NeuroScience, LLC, priority 2017, published 2025) come the findings set out here.

The structures appear in SMILES notation. A value given as a limit tells only on which side of the number the result lay.

One assay has as its target human PDE1B enzyme (Homo sapiens (Human), UniProt Q01064). Kind of assay: IMAP TR-FRET PDE1B enzymatic assay. As to conditions: negative log of half-maximal molar inhibitory concentration; 200 nM FAM-cAMP; values given as bins. The class given is biochemical. An outline of the steps: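 Full-length GST-tagged human PDE1B (250 pg/well) in IMAP BSA buffer with 10 U/ml calmodulin and 2.5 mM CaCl2; compound pre-incubated 5 min at room temperature, then 200 nM (final) FAM-cAMP for 30 min. IMAP binding reagent/Tb added, 1 h; TR-FRET 520/490 ratio read. IC50 from sigmoidal dose-response fit.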
On to `Cc1ncc(CNC(=O)c2c(C)oc3ncnc(NC4(C)CC4)c23)s1` [Example 743, 6-Methyl-N-[(2-methyl-1,3-thiazol-5-yl)methyl]-4-[(1-methylcyclopropyl)amino]furo[2,3-d]pyrimidine-5-carboxamide], for which the “PDE1b (pIC50)” value is listed as >8.
As to `Cc1oc2ncnc(NC3(C)CC3)c2c1C(=O)NCc1nc2cc(F)ccc2o1` [Example 751, N-[(5-Fluoro-1,3-benzoxazol-2-yl)methyl]-6-methyl-4-[(1-methylcyclopropyl)amino]furo[2,3-d]pyrimidine-5-carboxamide], the “PDE1b (pIC50)” value is >8.
As for `Cc1oc2ncnc(NC3(C)CC3)c2c1C(=O)NCCCN1CCCC1` [Example 752, 6-Methyl-4-[(1-methylcyclopropyl)amino]-N-[3-(pyrrolidin-1-yl)propyl]furo[2,3-d]pyrimidine-5-carboxamide], the “PDE1b (pIC50)” value is given as <6.

The assay is the same for the next values; noted with them: negative log of half-maximal molar inhibitory concentration; 200 nM FAM-cAMP; values given as bins; read-out: PDE1b (pIC50) (converted).
For `Cc1oc2ncnc(NC3(C)CC3)c2c1C(=O)Nc1ccc(C2CCOCC2)cn1` [Example 727, 6-Methyl-4-[(1-methylcyclopropyl)amino]-N-[5-(oxan-4-yl)pyridin-2-yl]furo[2,3-d]pyrimidine-5-carboxamide], the IC50 is 10 to 100 nM.
In the case of `Cc1nc(CNC(=O)c2c(C)oc3ncnc(NC4(C)CC4)c23)oc1C` [Example 728, N-[(Dimethyl-1,3-oxazol-2-yl)methyl]-6-methyl-4-[(1-methylcyclopropyl)amino]furo[2,3-d]pyrimidine-5-carboxamide], the IC50 was 10 to 100 nM.
In the case of `Cc1oc2ncnc(NC3(C)CC3)c2c1C(=O)NCc1nc2cc(F)ccc2[nH]1` [Example 729, N-[(5-Fluoro-1H-1,3-benzodiazol-2-yl)methyl]-6-methyl-4-[(1-methylcyclopropyl)amino]furo[2,3-d]pyrimidine-5-carboxamide], the IC50 is 10 to 100 nM.
Consider `Cc1oc2ncnc(NC3(C)CC3)c2c1C(=O)NCCc1nc2cc(F)ccc2o1` [Example 730, N-[2-(5-Fluoro-1,3-benzoxazol-2-yl)ethyl]-6-methyl-4-[(1-methylcyclopropyl)amino]furo[2,3-d]pyrimidine-5-carboxamide], for which the IC50 is 10 to 100 nM.
In the case of `COc1cnc(CNC(=O)c2c(C)oc3ncnc(NC4(C)CC4)c23)cn1` [Example 731, N-[(5-Methoxypyrazin-2-yl)methyl]-6-methyl-4-[(1-methylcyclopropyl)amino]furo[2,3-d]pyrimidine-5-carboxamide], the IC50 was 10 to 100 nM.
Turning to `Cc1oc2ncnc(NC3(C)CC3)c2c1C(=O)NCc1cnc(C2CC2)cn1` [Example 732, N-[(5-Cyclopropylpyrazin-2-yl)methyl]-6-methyl-4-[(1-methylcyclopropyl)amino]furo[2,3-d]pyrimidine-5-carboxamide], the IC50 was 10 to 100 nM.
For `Cc1oc2ncnc(NC3(C)CC3)c2c1C(=O)NCc1nc2cc(F)ccc2n1C` [Example 733, N-[(5-Fluoro-1-methyl-1H-1,3-benzodiazol-2-yl)methyl]-6-methyl-4-[(1-methylcyclopropyl)amino]furo[2,3-d]pyrimidine-5-carboxamide], the IC50 is 10 to 100 nM.
With `Cc1oc2ncnc(NC3(C)CC3)c2c1C(=O)NCCc1nc2cc(F)ccc2n1C` [Example 734, N-[2-(5-Fluoro-1-methyl-1H-1,3-benzodiazol-2-yl)ethyl]-6-methyl-4-[(1-methylcyclopropyl)amino]furo[2,3-d]pyrimidine-5-carboxamide], the IC50 was 10 to 100 nM.
Consider `Cc1oc2ncnc(NC3(C)CC3)c2c1C(=O)Nc1ccc(C2CCOCC2)nc1` [Example 735, 6-Methyl-4-[(1-methylcyclopropyl)amino]-N-[6-(oxan-4-yl)pyridin-3-yl]furo[2,3-d]pyrimidine-5-carboxamide], for which the IC50 was 100 to 1000 nM.
Consider `Cc1oc2ncnc(NC3(C)CC3)c2c1C(=O)Nc1cnc(C2CCOCC2)cn1` [Example 736, 6-Methyl-4-[(1-methylcyclopropyl)amino]-N-[5-(oxan-4-yl)pyrazin-2-yl]furo[2,3-d]pyrimidine-5-carboxamide], for which the IC50 was 10 to 100 nM.
Same read-out and setting: the value for `Cc1oc2ncnc(NC3(C)CC3)c2c1C(=O)NCc1cccc(N2CCOCC2)n1` [Example 737, 6-Methyl-4-[(1-methylcyclopropyl)amino]-N-{[6-(morpholin-4-yl)pyridin-2-yl]methyl}furo[2,3-d]pyrimidine-5-carboxamide] was 10 to 100 nM; that for `Cc1oc2ncnc(NC3(C)CC3)c2c1C(=O)NCc1nnn(C)n1` [Example 738, 6-Methyl-N-[(2-methyl-2H-1,2,3,4-tetrazol-5-yl)methyl]-4-[(1-methylcyclopropyl)amino]furo[2,3-d]pyrimidine-5-carboxamide] was 10 to 100 nM; that for `Cc1oc2ncnc(NC3(C)CC3)c2c1C(=O)NCc1csc(N2CCOCC2)n1` [Example 739, 6-Methyl-4-[(1-methylcyclopropyl)amino]-N-{[2-(morpholin-4-yl)-1,3-thiazol-4-yl]methyl}furo[2,3-d]pyrimidine-5-carboxamide] was 10 to 100 nM.
With `Cc1oc2ncnc(NC3(C)CC3)c2c1C(=O)NCc1cnn(C)n1` [Example 740, 6-Methyl-N-[(2-methyl-2H-1,2,3-triazol-4-yl)methyl]-4-[(1-methylcyclopropyl)amino]furo[2,3-d]pyrimidine-5-carboxamide], the IC50 is 10 to 100 nM.
For the molecule `Cc1oc2ncnc(NC3(C)CC3)c2c1C(=O)NCc1ncn(C)n1` [Example 741, 6-Methyl-N-[(1-methyl-1H-1,2,4-triazol-3-yl)methyl]-4-[(1-methylcyclopropyl)amino]furo[2,3-d]pyrimidine-5-carboxamide], the IC50 was 10 to 100 nM.
For `Cc1oc2ncnc(NC3(C)CC3)c2c1C(=O)N1Cc2cc(Br)cnc2C1` [Example 742, 5-{3-Bromo-5H,6H,7H-pyrrolo[3,4-b]pyridine-6-carbonyl}-6-methyl-N-(1-methylcyclopropyl)furo[2,3-d]pyrimidin-4-amine], the IC50 was 10 to 100 nM.
With `Cc1ncc(CNC(=O)c2c(C)oc3ncnc(NC4(C)CC4)c23)o1` [Example 744, 6-Methyl-N-[(2-methyl-1,3-oxazol-5-yl)methyl]-4-[(1-methylcyclopropyl)amino]furo[2,3-d]pyrimidine-5-carboxamide], the IC50 is 10 to 100 nM.
As to `Cc1oc2ncnc(NC3(C)CC3)c2c1C(=O)NCc1ccc(N2CCOCC2)nn1` [Example 745, 6-Methyl-4-[(1-methylcyclopropyl)amino]-N-{[6-(morpholin-4-yl)pyridazin-3-yl]methyl}furo[2,3-d]pyrimidine-5-carboxamide], the IC50 was 10 to 100 nM.
For the molecule `Cc1oc2ncnc(NC3(C)CC3)c2c1C(=O)NCC1CC1` [Example 746, N-(Cyclopropylmethyl)-6-methyl-4-[(1-methylcyclopropyl)amino]furo[2,3-d]pyrimidine-5-carboxamide], the IC50 is 10 to 100 nM.
In the case of `Cc1nc(CNC(=O)c2c(C)oc3ncnc(NC4(C)CC4)c23)co1` [Example 747, 6-Methyl-N-[(2-methyl-1,3-oxazol-4-yl)methyl]-4-[(1-methylcyclopropyl)amino]furo[2,3-d]pyrimidine-5-carboxamide], the IC50 was 10 to 100 nM.
For `Cc1oc2ncnc(NC3(C)CC3)c2c1C(=O)N1Cc2cc(C3CCOCC3)cnc2C1` [Example 748, 6-Methyl-N-(1-methylcyclopropyl)-5-[3-(oxan-4-yl)-5H,6H,7H-pyrrolo[3,4-b]pyridine-6-carbonyl]furo[2,3-d]pyrimidin-4-amine], the IC50 was 100 to 1000 nM.
On the same count and under the same terms, the same measure for `Cc1oc2ncnc(NC3(C)CC3)c2c1C(=O)NC(C)c1ncco1` (centres unmarked) [Example 749, 6-Methyl-4-[(1-methylcyclopropyl)amino]-N-[1-(1,3-oxazol-2-yl)ethyl]furo[2,3-d]pyrimidine-5-carboxamide]: 100 to 1000 nM.
Still for that read-out and setting: the value for `Cc1oc2ncnc(NC3(C)CC3)c2c1C(=O)NC(C)c1ccon1` (centres unmarked) [Example 750, 6-Methyl-4-[(1-methylcyclopropyl)amino]-N-[1-(1,2-oxazol-3-yl)ethyl]furo[2,3-d]pyrimidine-5-carboxamide] was 10 to 100 nM; that for `Cc1oc2ncnc(NC3(C)CC3)c2c1C(=O)Nc1ccc(N2CCOCC2)nc1` [Example 753, 6-Methyl-4-[(1-methylcyclopropyl)amino]-N-[6-(morpholin-4-yl)pyridin-3-yl]furo[2,3-d]pyrimidine-5-carboxamide] was 100 to 1000 nM.
For the molecule `Cc1oc2ncnc(NC3(C)CC3)c2c1C(=O)NCCC(F)(F)F` [Example 754, 6-Methyl-4-[(1-methylcyclopropyl)amino]-N-(3,3,3-trifluoropropyl)furo[2,3-d]pyrimidine-5-carboxamide], the IC50 is 10 to 100 nM.
As for `Cc1oc2ncnc(NC3(C)CC3)c2c1C(=O)NCC1CC1(F)F` (centres unmarked) [Example 755, N-[(2,2-Difluorocyclopropyl)methyl]-6-methyl-4-[(1-methylcyclopropyl)amino]furo[2,3-d]pyrimidine-5-carboxamide], the IC50 was 10 to 100 nM.
`Cc1oc2ncnc(NC3(C)CC3)c2c1C(=O)NCCN=S(C)(C)=O` [Example 756, N-(2-{[Dimethyl(oxo)-λ^6-sulfanylidene]amino}ethyl)-6-methyl-4-[(1-methylcyclopropyl)amino]furo[2,3-d]pyrimidine-5-carboxamide]: the IC50 is 100 to 1000 nM.
With `Cc1oc2ncnc(NC3(C)CC3)c2c1C(=O)Nc1cnc(N2C[C@@H](C)O[C@@H](C)C2)nc1` [Example 759, N-{2-[(2R,6S)-2,6-Dimethylmorpholin-4-yl]pyrimidin-5-yl}-6-methyl-4-[(1-methylcyclopropyl)amino]furo[2,3-d]pyrimidine-5-carboxamide], the IC50 is 100 to 1000 nM.
`Cc1coc(CNC(=O)c2c(C)oc3ncnc(NC4(C)CC4)c23)n1` [Example 760, 6-Methyl-N-[(4-methyl-1,3-oxazol-2-yl)methyl]-4-[(1-methylcyclopropyl)amino]furo[2,3-d]pyrimidin-5-carboxamide]: the IC50 was 10 to 100 nM.
